{
  "source": "patent US20030216361A1",
  "about": "“Therapeutic compositions effective against gram positive bacteria” (priority 2000, published 2003)",
  "key": {"B. cereus": {"test_system": "B. cereus", "experiment": "Broth macrodilution MIC and MBC, clinical isolates", "settings": "5 strains"}, "[1]": {"test_system": "ATCC 14154, mouse virulent Staphylococcus aureus", "experiment": "Mouse model of topical Gram positive (Staphylococcus aureus) infection, infected suture", "type": "in vivo", "settings": "mice; for Total colonies (number of Staph colonies per suture), individual animals: animals 1-10; for Total colonies (number of Staph colonies per suture), Ave.: average of 10 animals", "experimental": "The model, as described in J. Gisby and J. Bryant, Antimicrobial Agents and Chemotherapy, February 2000, Vol. 44, No. 2, p 255-260, was used.\nFifty HSD:ICR male mice weighing 12-14 grams were ordered and allowed to acclimate 7 days. Mice were allocated to 5 groups of 10 animals each.\nGroup 1: infected suture placed, no treatment\nGroup 2: topical GRPB, 12.5 mg/kg BID×7 days\nGroup 3: topical GRPB, 25 mg/kg BID×7 days\nGroup 4: clean suture, no treatment\nGroup 5: enrofloxacin (Baytril) 10 mg/kg SQ SID×7 days\nATCC 14154, mouse virulent Staphylococcus aureus was grown in BHI broth overnight (12 hours) at 38 degrees C. Forty-five minutes prior to surgery, silk suture (2-0 size, 1 cm lengths w/swaged-on blunt needle) was soaked in the broth for 30 minutes, excess liquid was then removed by blotting with filter paper.\nMice were anesthetized with a ketamine (40 mg/kg), midazolam (2 mg/kg), and butorphanol (0.1 mg/kg) as a single IP injection.\nThe skin on the back of the mouse was prepared for aseptic surgery by clipping, cleansing with iodine scrub, and rinsing with alcohol. Mice were kept warm during surgery on a recirculating hot water blanket.\nThe suture was placed just under the skin on the dorsum of the animal using sterile instruments. The suture was knotted in the subcutaneous tissue to keep it in place. A half-thickness skin wound was made over the suture using the side of an 18 gauge needle as a scalpel.\nMice were allowed to recover in the home cage.\nGRPB-10-15A was reconstituted as directed, using a minimal amount of methanol followed by dilution to required volume in sterile physiologic saline.\nInjections were given using insulin syringes with 30 gauge needles. Topical administration was placed over the wound site. The mice were first treated 4 hours after surgery and were treated once or twice daily thereafter.\nAfter 7 days of treatment animals were euthanized with IP pentobarbital euthanasia solution. The suture lengths were removed and placed in 2 mls phosphate buffered saline. Serial dilutions were performed and results reported as actual counts (number of Staph colonies per suture)."}, "[2]": {"test_system": "Enterococcus faecalis ATCC 29212", "experiment": "Disk diffusion susceptibility testing"}, "[3]": {"settings": "Group 2 low GRPB, topical 12.5 mg/kg BID×7 days"}, "[4]": {"settings": "Group 3 high GRPB, topical 25 mg/kg BID×7 days"}},
  "note": "Several values for one entry are separate records, joined by “and”; a condition that tells them apart may be missing. Equal values may be shown once. Marks after values point to notes of the source that are not given here.",
  "data": [
    {"smiles": "CC(=O)O[C@H]1CC[C@@]2(C)[C@@H](CC[C@@H]3[C@@H]2CC[C@]2(C)[C@@H](NC(=O)[C@@H]4CCCN4)CC[C@@H]32)C1", "values": [
      {"measurement": "MBC Range", "setting": "B. cereus", "result": ">64", "unit": "µg/mL"},
      {"measurement": "MIC Range", "setting": "B. cereus", "result": 32, "unit": "µg/mL"},
      {"measurement": "Total colonies (number of Staph colonies per suture), individual animals", "setting": "[1]; [3]", "result": "227 colonies per suture and 1993 colonies per suture and 832 colonies per suture and 317 colonies per suture and 1174 colonies per suture and 399 colonies per suture and 2523 colonies per suture and 968 colonies per suture and 739 colonies per suture and 1109 colonies per suture"},
      {"measurement": "Total colonies (number of Staph colonies per suture), Ave.", "setting": "[1]; [3]", "result": 1028, "unit": "colonies per suture"},
      {"measurement": "Total colonies (number of Staph colonies per suture), individual animals", "setting": "[1]; [4]", "result": "890* colonies per suture and 328 colonies per suture and 483 colonies per suture and 289 colonies per suture and 626 colonies per suture and 572 colonies per suture and 456 colonies per suture and 344 colonies per suture and 565 colonies per suture and 362 colonies per suture"},
      {"measurement": "Total colonies (number of Staph colonies per suture), Ave.", "setting": "[1]; [4]", "result": 492, "unit": "colonies per suture"},
      {"measurement": "MIC", "setting": "[2]", "result": "25-50 μg/disk"}
    ]}
  ]
}
